In patent US10646565B2, “Treatment of alzheimer'S disease (AD) with an aluminum salt” (AFFIRIS AG, priority 2014, dated 2020):
Entries after “also recorded” stand apart in the source; their conditions may differ.

Key:
[1] = tested on: respective immunizing peptide; test: ELISA titer of vaccination induced IgG Abs against immunizing peptide in Tg2576-mice; assay type: in vivo; conditions: 6x s.c. at 4-week intervals, plasma at sacrification, background 1/100, FIG. 6A
Description: Alum doses used were equivalent to 2 mg/ml. Vaccination induced Abs were measured in plasma samples taken at sacrification (SeqID 1 (n=10), […], KLH-Alum (n=10) and Alum only (n=8)). Samples were analyzed for their concentration of IgG Abs against specific peptides. Values depicted are the titer calculated as OD max/2 (at 405 nm) plus SEM. IgG response towards the respective immunizing peptide (SeqID 1: anti SeqID 1; SeqID 2: anti SeqID 2, KLH-Alum: anti KLH, Alum: anti AD02); B) Reactivity towards human Aβ1-40/42 after immunization. […] Background for this assay was set to 1/100, indicated by black lines and an asterisk in A+B.
Substrates used include human (BACHEM, CH) Aβ1-40/42 (at 5 μg/ml), KLH (1 μg/ml) and peptide-Bovine serum albumin (BSA) conjugates (SeqID 1 and SeqID 2, 1 μM). Optical density (OD) was measured at 405 nm using a micro-well reader (Tecan, CH). ODmax/2 was calculated.
To test the immunogenicity of two Aβ targeting vaccines SeqID 1-KLH-Alum and SeqID 2-KLH Alum in comparison to KLH-Alum and Alum (Aluminium-oxyhydroxide) only, Tg2576-mice were injected 6×, s.c., at 4-week intervals with either conjugate-vaccine containing 30 μg net peptide, equivalent doses of KLH formulated with Alum or Alum only. […] Vaccination induced Abs were measured in plasma samples taken at sacrification (SeqID 1 (n=10), SeqID 2 (n=8), KLH-Alum (n=10) and Alum only (n=8)).

patients with early AD [2] = test: AFF006 clinical trial: adverse event summary of local reactions; assay type: in vivo, human
Description: AFF006 was conducted as a randomized, placebo-controlled, parallel group, double-blind, multi-center phase II study and assessed the clinical and immunological activity as well as the safety and tolerability of repeated s.c. administrations of i.a. aluminium (different doses) in patients with early AD, as defined in the protocol. It was performed in a total of 6 countries: Austria, France, Germany, Slovakia, Czech Republic and Croatia.
The clinical trial comprised 10 regular outpatient visits and 6 telephone interviews. Up to four weeks before start of treatment, a screening visit (Visit 1) was performed to ensure suitability of the patients for the clinical trial and to establish the patients' baseline characteristics. Following screening, eligible patients were randomly allocated to the treatment groups. After randomization at week 0, patients received 6 injections with either 1 or 2 mg aluminium. Injections were applied s.c. by the investigator at weeks 0, 4, 8, 12, 40 and 65 (Visit 2, 3, 4, 5, 7 and 9).
At Visits 2, 3, 4, 5, 6, 7 and 9 possible local and systemic reactions to the vaccine and vital signs (blood pressure, heart rate, respiratory rate and body temperature) were assessed. In addition, a physical and neurological examination was performed. Efficacy parameters were assessed at Visits 1, 2, 3, 5, 6, 7, 8, 9, 10. The final visit (Visit 10) was performed twelve weeks after the last administration of study drug (Visit 9). An early discontinuation visit (EDV) was performed when a patient discontinued from the clinical trial.
During the study Visits 2, 3, 4, 5, 7 and 9 the patient received study drug by the investigator, in total: six injections over a 65-week treatment period. Injections were applied to the external surface of the upper arm, approximately 8-10 cm above the elbow. Prerequisite regarding the actual site was the presence of an intact regional lymph node station. If the draining lymph node stations of both upper arms were not intact, injection was placed into the thigh close to the inguinal lymph nodes. Two alternating injection sites (e.g. left and right upper arm, left upper arm and left thigh) were used throughout the 6 injections.
Injections were applied to the subcutaneous tissue (s.c.). Special care was taken to avoid […] application by careful aspiration before each injection. All administrations were performed at the trial site.
Safety evaluations included the following:
adverse events (AEs) and serious adverse events (SAEs) (number of patients who withdrew due to AEs; reason for withdrawal)

Tg2576 mice = test: Contextual fear conditioning (CFC) in Tg2576 mice; conditions: 6 monthly s.c. injections, Alum equivalent to 2 mg/ml
amyloid deposits = test: Cerebral amyloid load by immunofluorescence (mAb 3A5) in Tg2576 mice; assay type: in vivo; conditions: 6 monthly s.c. injections, sacrificed at 14 months of age
patients with early AD [3] = test: AFF006 clinical trial: Quality of Life (QOL) caregiver; assay type: in vivo, human; conditions: 2 mg compared to 1 mg and other groups, over a period of 18 months, FIG. 5
From the text: Caregivers completed the measure as a questionnaire about their patients' QOL. The measure consisted of 13 items, rated on a 4 point scale, with 1 being poor and 4 being excellent. Outcomes are shown as the change over time using a least squares means from a mixed model.
QOL caregiver is a brief, 13-item questionnaire designed to specifically obtain a rating of the QOL of the patient from the caregiver's perspective. Questions cover relationships with friends and family, concerns about finances, physical condition, mood, and an overall assessment of life quality. All items are rated on a four-point scale, with 1 being poor and 4 being excellent. The total score is the sum of all items, which can range from 13 to 52. QOL caregiver values are presented here as the change from baseline. Outcomes were measured at Visits 1, 6, 8, and 10.

human Aβ1-40/42 = test: ELISA reactivity of vaccination induced Abs towards human Aβ1-40/42 in Tg2576-mice; assay type: in vivo; conditions: 6x s.c. at 4-week intervals, plasma at sacrification, background 1/100, FIG. 6B
Description: Alum doses used were equivalent to 2 mg/ml. Vaccination induced Abs were measured in plasma samples taken at sacrification (SeqID 1 (n=10), SeqID (n=8), KLH-Alum (n=10) and Alum only (n=8)). Samples were analyzed for their concentration of IgG Abs against specific peptides. Values depicted are the titer calculated as OD max/2 (at 405 nm) plus SEM. […] Background for this assay was set to 1/100, indicated by black lines and an asterisk in A+B.

## aluminium oxyhydroxide
[1]
  IgG titer towards the peptide used for immunization (ODmax/2): did not elicit signals above background
Patients with early AD [2]; 1 mg s.c., N = 48
  Musculoskeletal and Connective Tissue Disorders: Pain in Extremity: events: 0
  Musculoskeletal and Connective Tissue Disorders: Pain in Extremity: subjects %: 0.0%
  Musculoskeletal and Connective Tissue Disorders: Pain in Extremity: subjects n: 0
  Vascular Disorders: Haematoma: subjects n: 0
Patients with early AD [2]; 2 mg s.c., N = 51
  Musculoskeletal and Connective Tissue Disorders: Pain in Extremity: events: 1
  Musculoskeletal and Connective Tissue Disorders: Pain in Extremity: subjects n: 1
  Vascular Disorders: Haematoma: subjects n: 0
Tg2576 mice; FIG. 7, listed as Alum
  contextual memory and learning (CFC, % of time freezing): showed similar effects as detectable with Aβ targeting vaccines
Tg2576 mice; FIG. 7, listed as aluminium-oxyhydroxide
  contextual memory and learning (CFC, % of time freezing): lower cognitive decline significantly
Amyloid deposits; IF-staining mAb 3A5, FIG. 8, listed as Alum
  cerebral amyloid load (relative brain area covered by amyloid deposits): did not significantly alter amyloid deposition; also recorded: slight but insignificant reduction in Aβ deposition
Amyloid deposits; IF-staining mAb 3A5, FIG. 8, listed as aluminium-oxyhydroxide
  cerebral amyloid load (relative brain area covered by amyloid deposits): without significantly changing cerebral Aβ levels
Patients with early AD [3]
  QOL of the patient rated by caregivers (QOL-AD): significantly improved
Human Aβ1-40/42
  Abs reactivity towards human Aβ1-40/42: did not elicit signals above background; also recorded: do not show reactivity above background
